Results published in patent publication US20030059338A1, “Methods for sterilizing biological materials using flavonoid/flavonol stabilizers” (priority 2001, published 2003).

Columns and labels:
thrombin = assay: Thrombin clotting activity (chromagenic) of lyophilized thrombin after gamma irradiation with stabilizer (Example 3); assay type: biochemical; details: lyophilized thrombin + 10% BSA, 48.5-51.2 kGy at 1.846-1.949 kGy/hr, 4° C.; epicatechin 200 mM, purpurogallin 1M, biacalein 50 mM
Procedure: Samples of thrombin (100 NIH units, 1 ml), alone or in the presence of epicatechin (200 mM) or purpurogallin (1M, Aldrich) or biacalein (50 mM; Aldrich), and 10% bovine serum albumin, were prepared and lyophilized. Lyophilized samples were gamma irradiated to 48.5-51.2 kGy at a dose rate of 1.846-1.949 kGy/hr at 4° C. All samples were then assayed for clotting activity by conventional chromagenic methodology.

[1] = system: anti-insulin monoclonal immunoglobulin; assay: ELISA activity of freeze-dried anti-insulin monoclonal immunoglobulin after gamma irradiation with stabilizer (Example 1); assay type: binding; details: freeze-dried anti-insulin mAb + 1% BSA, irradiated to 45 kGy at 1.83 kGy/hr, 4° C.; diosmin 39.3 mM or silymarin 246 mM
Procedure: Samples were prepared by combining anti-insulin monoclonal antibody ([…] of 2 mg/ml solution) and either diosmin (39.3 mM; Sigma cat# D3525 lot 125H0831) or silymarin (246 mM; Aldrich cat #24592-4) in 3 ml glass vials with 13 mm stoppers. Samples were freeze-dried for approximately 64 hours and stoppered under vacuum and sealed with an aluminum, crimped seal. Samples were irradiated at a dose rate of 1.83 kGy/hr to a total dose of 45 kGy at 4° C. Monoclonal immunoglobulin activity was determined by a standard ELISA protocol. Maxisorp plates were coated with human recombinant insulin at […] overnight at 4° C. The plate was blocked with […] of blocking buffer (PBS, pH 7.4, 2% BSA) for two hours at 37° C. and then washed six times with wash buffer (TBS, pH 7, 0.05% TWEEN 20). Samples were re-suspended in […] of high purity water (100 ng/ml), diluted to 5 Fg/ml in a 300 Fl U-bottomed plate coated for either overnight or two hours with blocking buffer. Serial 3-fold dilutions were performed, with a final concentration of […]. Plates were incubated for one hour at 37° C. with agitation and then washed six times with a wash buffer. Phosphatase-labelled goat anti-mouse IgG (H+L) was diluted to 50 ng/ml in binding buffer and […] was added to each well. […] The plate was read on a Multiskan MCC/340 at 405 nm with the background absorbance at 620 nm subtracted.

Structure (SMILES) | thrombin activity retained following gamma irradiation (thrombin) | recovery of activity [1] [%]
O=c1cc(-c2ccccc2)oc2cc(O)c(O)c(O)c12 [biacalein] | about 57% | –
COc1ccc(-c2cc(=O)c3c(O)cc(O[C@@H]4O[C@H](CO[C@@H]5O[C@@H](C)[C@H](O)[C@@H](O)[C@H]5O)[C@@H](O)[C@H](O)[C@H]4O)cc3o2)cc1O [diosmin] | – | ~62
O=c1c(O)cccc2cc(O)c(O)c(O)c12 [purpurogallin] | over 90% | –
